Source: ChEMBL document CHEMBL1833853, “Synthesis and in-vitro anticancer activity of 3,5-bis(indolyl)-1,2,4-thiadiazoles” (Bioorg Med Chem Lett, 2011)

Legend:
Assay type in all cases: functional, cell-based
MCF7 = experiment: Cytotoxicity against human MCF7 cells
LNCaP = experiment: Cytotoxicity against human LNCAP cells
MDA-MB-231 = experiment: Cytotoxicity against human MDA-MB-231 cells
PC-3 = experiment: Cytotoxicity against human PC3 cells
MIA PaCa-2 = experiment: Cytotoxicity against human MIAPaCa2 cells
DU-145 = experiment: Cytotoxicity against human DU145 cells

COc1ccc2c(c1)c(-c1nsc(-c3cn(C)c4ccc(OC)cc34)n1)cn2C
IC50 (MCF7): 79.9 µM
IC50 (LNCaP): 111 µM
IC50 (MDA-MB-231): 95.7 µM
IC50 (PC-3): 270 µM
IC50 (MIA PaCa-2): 177 µM
IC50 (DU-145): 137 µM

c1ccc2c(-c3nsc(-c4c[nH]c5ccccc45)n3)c[nH]c2c1
IC50 (MCF7): 143 µM
IC50 (LNCaP): > 1000 µM
IC50 (MDA-MB-231): 702 µM
IC50 (PC-3): > 1000 µM
IC50 (MIA PaCa-2): > 1000 µM
IC50 (DU-145): 248 µM

Cn1cc(-c2nsc(-c3cn(C)c4ccccc34)n2)c2ccccc21
IC50 (MCF7): 177 µM
IC50 (LNCaP): 226 µM
IC50 (MDA-MB-231): 236 µM
IC50 (PC-3): 92.3 µM
IC50 (MIA PaCa-2): 185 µM
IC50 (DU-145): 64 µM

COc1ccc2c(-c3nsc(-c4c[nH]c5cc(OC)ccc45)n3)c[nH]c2c1
IC50 (MCF7): 35.3 µM
IC50 (LNCaP): 35.8 µM
IC50 (MDA-MB-231): 44.3 µM
IC50 (PC-3): 76.1 µM
IC50 (MIA PaCa-2): 95.3 µM
IC50 (DU-145): 42.3 µM

c1ccc2c(Cc3nsc(Cc4c[nH]c5ccccc45)n3)c[nH]c2c1
IC50 (MCF7): 40.5 µM
IC50 (LNCaP): 43.3 µM
IC50 (MDA-MB-231): 65 µM
IC50 (PC-3): 44.2 µM
IC50 (MIA PaCa-2): 31.3 µM
IC50 (DU-145): 51.2 µM

COc1ccc2c(c1)c(-c1nsc(-c3cn(Cc4ccc(Cl)cc4)c4ccc(OC)cc34)n1)cn2Cc1ccc(Cl)cc1
IC50 (MCF7): 32.1 µM
IC50 (LNCaP): 14.6 µM
IC50 (MDA-MB-231): 67.9 µM
IC50 (PC-3): 21.4 µM
IC50 (MIA PaCa-2): 21.2 µM
IC50 (DU-145): 370 µM

Cn1c(-c2nsc(-c3cc4ccccc4n3C)n2)cc2ccccc21
IC50 (MCF7): 66.4 µM
IC50 (LNCaP): 207 µM
IC50 (MDA-MB-231): > 1000 µM
IC50 (PC-3): 432 µM
IC50 (MIA PaCa-2): 260 µM
IC50 (DU-145): > 1000 µM

Cn1cc(-c2nsc(-c3cn(C)c4ccc(Br)cc34)n2)c2cc(Br)ccc21
IC50 (MCF7): 63.6 µM
IC50 (LNCaP): > 1000 µM
IC50 (MDA-MB-231): > 1000 µM
IC50 (PC-3): > 1000 µM
IC50 (MIA PaCa-2): > 1000 µM
IC50 (DU-145): > 1000 µM

O=[N+]([O-])c1ccc2[nH]cc(-c3nsc(-c4c[nH]c5ccc([N+](=O)[O-])cc45)n3)c2c1
IC50 (MCF7): 83.5 µM
IC50 (LNCaP): 177 µM
IC50 (MDA-MB-231): 98.6 µM
IC50 (PC-3): 680 µM
IC50 (MIA PaCa-2): 187 µM
IC50 (DU-145): 325 µM

c1ccc2[nH]c(-c3nsc(-c4cc5ccccc5[nH]4)n3)cc2c1
IC50 (MCF7): 162 µM
IC50 (LNCaP): 247 µM
IC50 (MDA-MB-231): > 1000 µM
IC50 (PC-3): 326 µM
IC50 (MIA PaCa-2): 102 µM
IC50 (DU-145): 453 µM

Brc1ccc2[nH]cc(-c3nsc(-c4c[nH]c5ccc(Br)cc45)n3)c2c1
IC50 (MCF7): 31.3 µM
IC50 (LNCaP): 159 µM
IC50 (MDA-MB-231): 100 µM
IC50 (PC-3): 162 µM
IC50 (MIA PaCa-2): 124 µM
IC50 (DU-145): 56.7 µM

COc1ccc2[nH]cc(-c3nsc(-c4c[nH]c5ccc(OC)cc45)n3)c2c1
IC50 (MCF7): 424 µM
IC50 (LNCaP): 295 µM
IC50 (MDA-MB-231): > 1000 µM
IC50 (PC-3): 224 µM
IC50 (MIA PaCa-2): 45.8 µM
IC50 (DU-145): 206 µM

Clc1ccc(Cn2cc(-c3nsc(-c4cn(Cc5ccc(Cl)cc5)c5ccccc45)n3)c3ccccc32)cc1
IC50 (MCF7): > 1000 µM
IC50 (LNCaP): 413 µM
IC50 (MDA-MB-231): > 1000 µM
IC50 (PC-3): > 1000 µM
IC50 (MIA PaCa-2): 101 µM
IC50 (DU-145): > 1000 µM

Brc1ccc2c(-c3nsc(-c4c[nH]c5cc(Br)ccc45)n3)c[nH]c2c1
IC50 (MCF7): 39.2 µM
IC50 (LNCaP): 80.1 µM
IC50 (MDA-MB-231): 38.3 µM
IC50 (PC-3): 132 µM
IC50 (MIA PaCa-2): 83 µM
IC50 (DU-145): 30.2 µM
